In ChEMBL document CHEMBL3046686, “Isoxazole derivatives as a potential insecticide for managing Callosobruchus chinensis” (2010):
Converted amounts (≈) assume the structure as drawn.

Experiments:
Callosobruchus chinensis [1] = assay: Insecticidal activity against Callosobruchus chinensis assessed as mortality at 1000 mg/l at 27 +/- 1 degC and 70% RH; type: functional
Callosobruchus chinensis [2] = assay: Insecticidal activity against Callosobruchus chinensis assessed as mortality at 27 +/- 1 degC and 70% RH; type: functional

**Q.** For Clc1ccc(-c2cc(-c3ccccc3)on2)cc1, which mortality at 1000 µg/mL (Callosobruchus chinensis [1]) is on record?
**A.** 65%

**Q.** Which mortality at 1000 µg/mL (Callosobruchus chinensis [1]) does the source give for COc1ccc(-c2cc(-c3ccccc3)no2)cc1 here?
**A.** 66%

**Q.** Cc1ccc(-c2cc(-c3ccccc3)no2)cc1 was tested. Which mortality at 1000 µg/mL (Callosobruchus chinensis [1]) did it give?
**A.** 65%

**Q.** Which mortality at 1000 µg/mL (Callosobruchus chinensis [1]) does the source give for COc1ccc(-c2cc(-c3ccc(Cl)cc3)on2)cc1 here?
**A.** 85%

**Q.** What about the LC50 (Callosobruchus chinensis [2]) of the same molecule?
**A.** 330 µg/mL (≈ 1150 µM)

**Q.** For Fc1ccc(-c2cc(-c3ccccc3)on2)cc1, which mortality at 1000 µg/mL (Callosobruchus chinensis [1]) is on record?
**A.** 86%

**Q.** And the LC50 (Callosobruchus chinensis [2])?
**A.** 254 µg/mL (≈ 1060 µM)

**Q.** For Fc1ccc(-c2cc(-c3ccc(Cl)cc3)on2)cc1, which mortality at 1000 µg/mL (Callosobruchus chinensis [1]) is on record?
**A.** 59%

**Q.** How did the mortality at 1000 µg/mL (Callosobruchus chinensis [1]) turn out when Cc1ccc(-c2cc(-c3ccc(F)cc3)no2)cc1 was run?
**A.** 67%

**Q.** With COc1ccc(-c2cc(-c3ccc(F)cc3)no2)cc1 as the molecule, how does the mortality at 1000 µg/mL (Callosobruchus chinensis [1]) read?
**A.** 88%

**Q.** And the LC50 (Callosobruchus chinensis [2])?
**A.** 289 µg/mL (≈ 1070 µM)

**Q.** For Clc1ccc(-c2cc(-c3ccc(Cl)cc3)on2)cc1, which mortality at 1000 µg/mL (Callosobruchus chinensis [1]) is on record?
**A.** 90%

**Q.** What about the LC50 (Callosobruchus chinensis [2]) of the same molecule?
**A.** 134 µg/mL (≈ 462 µM)

**Q.** How did the mortality at 1000 µg/mL (Callosobruchus chinensis [1]) turn out when Cc1ccc(-c2cc(-c3ccc(Cl)cc3)no2)cc1 was run?
**A.** 63%

**Q.** How did the mortality at 1000 µg/mL (Callosobruchus chinensis [1]) turn out when COc1ccc(-c2cc(-c3ccc(Cl)cc3)no2)cc1 was run?
**A.** 82%

**Q.** What about the LC50 (Callosobruchus chinensis [2]) of the same molecule?
**A.** 354 µg/mL (≈ 1240 µM)

**Q.** Which results are given for Clc1ccccc1-c1cc(-c2ccccc2)on1?
**A.** mortality at 1000 µg/mL (Callosobruchus chinensis [1]): 78%; LC50 (Callosobruchus chinensis [2]): 36 µg/mL (≈ 141 µM)

**Q.** What does the source list for Clc1ccc(-c2cc(-c3ccccc3Cl)no2)cc1?
**A.** mortality at 1000 µg/mL (Callosobruchus chinensis [1]): 85%; LC50 (Callosobruchus chinensis [2]): 338 µg/mL (≈ 1160 µM)

**Q.** For Cc1ccc(-c2cc(-c3ccccc3Cl)no2)cc1, which mortality at 1000 µg/mL (Callosobruchus chinensis [1]) is on record?
**A.** 68%

**Q.** Which mortality at 1000 µg/mL (Callosobruchus chinensis [1]) does the source give for COc1ccc(-c2cc(-c3ccccc3Cl)no2)cc1 here?
**A.** 86%

**Q.** What about the LC50 (Callosobruchus chinensis [2]) of the same molecule?
**A.** 110 µg/mL (≈ 385 µM)

**Q.** COc1ccc(-c2cc(-c3ccccc3)on2)cc1 was tested. Which mortality at 1000 µg/mL (Callosobruchus chinensis [1]) did it give?
**A.** 58%

**Q.** With COc1ccc(-c2cc(-c3ccc(C)cc3)on2)cc1 as the molecule, how does the mortality at 1000 µg/mL (Callosobruchus chinensis [1]) read?
**A.** 84%

**Q.** And the LC50 (Callosobruchus chinensis [2])?
**A.** 93 µg/mL (≈ 351 µM)

**Q.** With COc1ccc(-c2cc(-c3ccc(OC)cc3)on2)cc1 as the molecule, how does the mortality at 1000 µg/mL (Callosobruchus chinensis [1]) read?
**A.** 89%

**Q.** What about the LC50 (Callosobruchus chinensis [2]) of the same molecule?
**A.** 296 µg/mL (≈ 1050 µM)

**Q.** For Clc1ccc(-c2cc(-c3ccccc3)no2)cc1, which mortality at 1000 µg/mL (Callosobruchus chinensis [1]) is on record?
**A.** 46%

**Q.** With c1ccc(-c2cc(-c3ccccc3)on2)cc1 [3,5-DIPHENYLISOXAZOLE] as the molecule, how does the mortality at 1000 µg/mL (Callosobruchus chinensis [1]) read?
**A.** 67%

**Q.** Which LC50 (Callosobruchus chinensis [2]) does the source give for COP(=O)(OC)OC=C(Cl)Cl [DICHLORVOS] here?
**A.** 155 µg/mL (≈ 701 µM)
